{"source": "patent US20240408170A1", "about": "“COMPOSITION FOR DECOMPOSITION OF TRYPSIN OR TMPRSS2” (Riken, priority 2021, published 2024)", "biological_target": "T1, recombinant mouse PRSS2 (Mus musculus, UniProt P07146)", "T1 construct": "purchased Sino Biological, Inc. 50383-M08H", "T1 sequence (P07146 24-246)": "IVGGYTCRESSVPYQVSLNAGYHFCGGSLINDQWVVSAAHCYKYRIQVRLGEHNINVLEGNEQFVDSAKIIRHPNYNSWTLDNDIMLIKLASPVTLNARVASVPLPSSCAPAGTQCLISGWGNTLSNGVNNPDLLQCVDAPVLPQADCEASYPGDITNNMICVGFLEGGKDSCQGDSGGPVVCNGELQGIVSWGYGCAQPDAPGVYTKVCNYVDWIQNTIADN", "assay": "Trypsin decomposition in vitro by bacteria (western blot)", "assay_type": "biochemical", "details": "bacteria or culture supernatant incubated with recombinant mouse trypsin", "procedure": "Mouse faecal samples were suspended and diluted 50-fold with phosphate buffered saline (PBS) to which a protease inhibitor cocktail (Roche) was added. Subsequently, the suspended sample was centrifuged at 15,000×g for 10 minutes at 4° C., and the supernatant was subjected to western blot. Mouse pancreatic tissue was rapidly frozen in liquid nitrogen. Proteins were extracted by TRIzol Reagent (Thermo Fisher Scientific K.K.), and the final protein concentration was adjusted to 4 μg/μL. For SDS-PAGE and blotting, Novex (registered trademark) NuPAGE (registered trademark) SDS-PAGE Gel system (Thermo Fisher Scientific K.K.) and iBlot™ 2 Dry Blotting System (Thermo Fisher Scientific K.K.) were used according to the manufacturer's instructions.\nThe bacteria cultured overnight were incubated with recombinant mouse trypsin (final concentration: 1 μg/mL) for 1 hour or with human trypsin (final concentration: 20 μg/mL) for 4 hours. Recombinant trypsin isoforms used were as follows: recombinant mouse PRSS2 (50383-M08H, Sino Biological, Inc.), recombinant human PRSS1 (LS-G135640), recombinant human PRSS2 (LS-G20167), and recombinant human PRSS3 (His-tag) (NBP2-52220).\nIn some experiments, recombinant mouse PRSS2 was first treated with one of the following trypsin inhibitors for 30 minutes before incubation with a P. clara culture solution. AEBSF (Sigma-Aldrich, final concentration: 2 mM), Leupeptin (Sigma-Aldrich, final concentration: 100 μM), and TLCK (Abcam plc., final concentration: 100 μM).\nIn some experiments, P. clara was cultured overnight in the presence of Tunicamycin (Sigma-Aldrich, final concentration: 10 μg/mL), 2-Fluoro-L-fucose (Cayman Chemical Company, final concentration: 250 μM), or the corresponding DMSO control, before incubation with recombinant mouse PRSS2.\nIn the experiment of evaluating the effect of Ca^2+, P. clara was cultured in a low Ca^2+ mGAM medium supplemented with or without 1 mM of Ca^2+, before incubation with recombinant mouse PRSS2. In the experiment in which the supernatant of P. clara was used, P. clara cultured overnight was filtered through a sterilization filter unit formed using a PVDF film having a pore size of 0.22 μm.", "data": [{"substance": "Paraprevotella clara [JCM 14859]", "values": [{"measurement": "decomposition of rmPRSS2 (western blot)", "result": "effect of reducing trypsin"}]}]}
